Data on 9 compounds can be found in patent US20050124562A1, “Bis-quinazoline compounds for the treatment of bacterial infections” (priority 2003, published 2005).

What all share (format): cell-based
Experiment [1] concerns efflux mutants of E. coli. Nature of the experiment: Broth microdilution MIC (NCCLS), E. coli efflux mutants. The conditions noted are these: Escherichia coli, read-out: MICs. The protocol:
(§1) Representative bis-quinazolines were tested for antibacterial activity using the […] microdilution method to determine their minimum inhibitory concentrations (MICs). All compounds were tested using standard methods in accordance with NCCLS guidelines (National Committee for Clinical Laboratory Standards. 2003. Methods for dilution antimicrobial susceptibility testing for bacteria that grow aerobically. Approved Standard M-7 A-6, NCCLS, Wayne, Pa.). The bacterial strains used in the susceptibility tests were obtained from the American Type Culture Collection (ATCC) and included resistant phenotypes such as oxacillin-resistant S. aureus (ORSA) and vancomycin-resistant enterococci (VRE). The minimum bactericidal concentrations (MBCs) were determined for selected organisms. The effect of protein binding on the antibacterial activity of representative bis-quinazolines were determined by conducting MIC tests in the presence of human serum.
For orientation: Dilution methods test growth across graded concentrations, often in twofold steps.

The test system of another experiment is M. catarrhalis. Nature of the experiment: Broth microdilution MIC (NCCLS), M. catarrhalis. The conditions noted are these: Moraxella catarrhalis; some strains of M. catarrhalis; read-out: MIC range. The protocol: as §1
The subject of experiment [2] is efflux mutants of P. aeruginosa. The experiment is described as follows: Broth microdilution MIC (NCCLS), P. aeruginosa efflux mutants. The following applies: Pseudomonas aeruginosa, read-out: MICs. Here is the method: as §1
In experiment [3] the test system is S. aureus, E. faecalis, S. pyogenes and S. pneumoniae. Nature of the experiment: Broth microdilution MIC (NCCLS), gram-positive strains. The following applies: range against some strains of S. aureus, E. faecalis, S. pyogenes and S. pneumoniae; read-out: MIC. In a few lines: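 MICs by broth microdilution per NCCLS M-7 A-6 against ATCC strains, including ORSA and VRE; MBCs determined for selected organisms. Serum effect assessed by repeating MIC tests with human serum present.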

A further experiment deals with H. influenzae. The experiment is described as follows: Broth microdilution MIC (NCCLS), H. influenzae. The conditions noted are these: Haemophilus influenzae; some strains of H. influenzae. The protocol:
as §1

The structures appear in SMILES notation.

Turning to `COc1cc(OC)c2nc(Nc3nc(O)c4c(OC)cccc4n3)nc(C)c2c1.O=C(O)C(F)(F)F` [Example 85, 2-(6,8-Dimethoxy-4-methyl-quinazolin-2-ylamino)-5-methoxy-quinazolin-4-ol trifluoroacetate salt], the MIC in experiment [1] was 16 to 64 µg/mL; in the experiment on M. catarrhalis, 2 to 64 µg/mL; in experiment [2], 64 µg/mL; in experiment [3], 0.06 to 16 µg/mL; with H. influenzae it was 16 to 32 µg/mL.
The like results for `COc1cc2c(C)nc(Nc3nc(O)c4cccc(OC)c4n3)nc2cc1F.O=C(O)C(F)(F)F` [Example 86, 2-(7-Fluoro-6-methoxy-4-methyl-quinazolin-2-ylamino)-8-methoxy-quinazolin-4-ol trifluoroacetate salt] were, in that order, 16 to 64 µg/mL, 2 to 64 µg/mL, 64 µg/mL, 0.06 to 16 µg/mL and 16 to 32 µg/mL.
As to `COc1cc2nc(Nc3nc(O)c4cccc(OC)c4n3)nc(CF)c2cc1OC.O=C(O)C(F)(F)F` [Example 87, 2-(4-Fluoromethyl-6,7-dimethoxy-quinazolin-2-ylamino)-8-methoxy-quinazolin-4-ol trifluoroacetate salt], the MIC in experiment [1] is 16 to 64 µg/mL; with M. catarrhalis it was 2 to 64 µg/mL; in experiment [2] it was 64 µg/mL; in experiment [3] it was 0.06 to 16 µg/mL; with H. influenzae it was 16 to 32 µg/mL.
Consider `COCCOc1ccc2nc(Nc3nc(O)c4c(OC)cccc4n3)nc(C)c2c1.O=C(O)C(F)(F)F` [Example 88, 5-Methoxy-2-[6-(2-methoxy-ethoxy)-4-methyl-quinazolin-2-ylamino]-quinazolin-4-ol trifluoroacetate salt], for which the MIC in experiment [1] was 16 to 64 µg/mL; in the experiment on M. catarrhalis, 2 to 64 µg/mL; in experiment [2], 64 µg/mL; in experiment [3] it was 0.06 to 16 µg/mL; with H. influenzae, 16 to 32 µg/mL.
With `COCCOc1cc2nc(Nc3nc(O)c4cccc(OC)c4n3)nc(C)c2cc1OCCOC.O=C(O)C(F)(F)F` [Example 89, 2-[6,7-Bis-(2-methoxy-ethoxy)-4-methyl-quinazolin-2-ylamino]-8-methoxy-quinazolin-4-ol trifluoroacetate salt], the MIC in experiment [1] is 16 to 64 µg/mL; in the experiment on M. catarrhalis it was 2 to 64 µg/mL; in experiment [2] it was 64 µg/mL; in experiment [3], 0.06 to 16 µg/mL; against H. influenzae, 16 to 32 µg/mL.
Taken in the same sequence, the figures for `COc1cc2nc(Nc3nc(O)c4c(OC)cccc4n3)nc(CF)c2cc1OC.O=C(O)C(F)(F)F` [Example 90, 2-(4-Fluoromethyl-6,7-dimethoxy-quinazolin-2-ylamino)-5-methoxy-quinazolin-4-ol trifluoroacetate salt] were 16 to 64 µg/mL, 2 to 64 µg/mL, 64 µg/mL, 0.06 to 16 µg/mL and 16 to 32 µg/mL.
As for `COc1cccc2c(O)nc(Nc3nc(C)c4c(OC)ccc(C)c4n3)nc12.O=C(O)C(F)(F)F` [Example 91, 8-Methoxy-2-(5-methoxy-4,8-dimethyl-quinazolin-2-ylamino)-quinazolin-4-ol trifluoroacetate salt], the MIC is 16 to 64 µg/mL in experiment [1]; 2 to 64 µg/mL in the experiment with M. catarrhalis; 64 µg/mL in experiment [2]; 0.06 to 16 µg/mL in experiment [3]; 16 to 32 µg/mL against H. influenzae.
The like results for `COc1cc2c(C)nc(Nc3nc(O)c4c(OC)cccc4n3)nc2cc1F.O=C(O)C(F)(F)F` [Example 94, 2-(7-Fluoro-6-methoxy-4-methyl-quinazolin-2-ylamino)-5-methoxy-quinazolin-4-ol trifluoroacetate salt] were, in that order, 16 to 64 µg/mL, 2 to 64 µg/mL, 64 µg/mL, 0.06 to 16 µg/mL and 16 to 32 µg/mL.
The like results for `COc1ccc(OC)c2c(O)nc(Nc3nc(C)c4ccc5c(c4n3)OCCO5)nc12.O=C(O)C(F)(F)F` [Example 95, 5,8-Dimethoxy-2-(8-methyl-2,3-dihydro-1,4-dioxa-5,7-diaza-phenanthren-6-ylamino)-quinazolin-4-ol trifluoroacetate salt] were, in that order, 16 to 64 µg/mL, 2 to 64 µg/mL, 64 µg/mL, 0.06 to 16 µg/mL and 16 to 32 µg/mL.
